Assay results taken from paper PMC7044277 (Nature Communications, 2020).
Values joined by “and” are separate entries in the source; they are usually repeats but may differ in a detail not shown here. Identical values can stand only once.

Experiments:
[1] = biological target: DRD2 (D2 long receptor) (Homo sapiens, UniProt P14416); assay: Gαi/o-mediated cAMP inhibition (GloSensor split-luciferase cAMP reporter), HEK293T; assay type: cell-based; details: DRD2;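 note: compounds applied 15 min at room temperature, then luciferin plus 400 nM isoproterenol to raise cAMP through endogenous β2-adrenergic receptors, luminescence read 15 min later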
Chain of DRD2 (D2 long receptor) (P14416 whole entry): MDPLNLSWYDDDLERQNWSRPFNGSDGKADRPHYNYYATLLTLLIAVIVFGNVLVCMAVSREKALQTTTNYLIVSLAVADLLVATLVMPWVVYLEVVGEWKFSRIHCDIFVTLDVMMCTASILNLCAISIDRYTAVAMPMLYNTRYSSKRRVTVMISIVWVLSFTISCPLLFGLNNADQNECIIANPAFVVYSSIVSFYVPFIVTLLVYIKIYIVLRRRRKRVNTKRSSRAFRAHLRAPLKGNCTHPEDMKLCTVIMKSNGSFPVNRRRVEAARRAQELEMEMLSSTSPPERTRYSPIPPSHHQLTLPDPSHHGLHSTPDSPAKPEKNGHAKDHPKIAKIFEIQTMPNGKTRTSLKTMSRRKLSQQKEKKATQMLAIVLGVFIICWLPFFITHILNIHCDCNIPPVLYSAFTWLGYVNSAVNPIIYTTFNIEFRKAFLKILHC

[2] = biological target: T1, DRD3 (Homo sapiens, UniProt P35462); assay: Gαi/o-mediated cAMP inhibition (GloSensor); assay type: cell-based; details: DRD3, cAMP inhibition
T1 sequence (P35462 whole entry): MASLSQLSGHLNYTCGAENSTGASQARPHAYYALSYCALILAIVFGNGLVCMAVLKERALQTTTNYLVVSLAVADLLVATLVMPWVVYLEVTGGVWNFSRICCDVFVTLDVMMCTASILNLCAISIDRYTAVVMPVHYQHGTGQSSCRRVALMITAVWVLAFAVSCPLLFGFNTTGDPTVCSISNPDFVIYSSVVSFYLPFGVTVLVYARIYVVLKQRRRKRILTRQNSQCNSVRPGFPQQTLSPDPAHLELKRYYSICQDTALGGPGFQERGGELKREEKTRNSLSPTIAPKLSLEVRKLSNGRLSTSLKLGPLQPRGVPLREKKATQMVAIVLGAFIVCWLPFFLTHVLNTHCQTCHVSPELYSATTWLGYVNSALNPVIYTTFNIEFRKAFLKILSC

[3] = biological target: T2, DRD4 (D4.4 variant) (Homo sapiens, UniProt P21917); assay: Gαi/o-mediated cAMP inhibition (GloSensor); assay type: cell-based; details: DRD4; agonist, cAMP inhibition; read-out: EC50 ± SEM
T2 sequence (P21917 1-419): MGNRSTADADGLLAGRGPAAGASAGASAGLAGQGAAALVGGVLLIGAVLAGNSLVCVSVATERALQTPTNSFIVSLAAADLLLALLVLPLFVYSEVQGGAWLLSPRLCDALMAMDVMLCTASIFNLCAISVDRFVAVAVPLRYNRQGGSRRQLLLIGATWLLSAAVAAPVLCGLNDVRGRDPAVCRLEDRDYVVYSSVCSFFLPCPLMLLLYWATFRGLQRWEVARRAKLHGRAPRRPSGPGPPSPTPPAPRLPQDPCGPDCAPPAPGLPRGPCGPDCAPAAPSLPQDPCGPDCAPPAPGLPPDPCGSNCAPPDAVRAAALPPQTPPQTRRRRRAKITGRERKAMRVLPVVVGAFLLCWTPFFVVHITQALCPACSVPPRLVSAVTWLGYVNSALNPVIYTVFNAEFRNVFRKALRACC

[4] = biological target: T3, DRD2 F1103.28L (Homo sapiens, UniProt P14416, F110L); assay: Gαi/o-mediated cAMP inhibition (GloSensor), mutant; assay type: cell-based
T3 construct: expressed in transfected cells; host or cells: HEK293T (ATCC CRL-11268)
T3 sequence (P14416 whole entry F110L): as the sequence (P14416 whole entry) above, with F110L counted along it

[5] = biological target: T1, DRD3; assay: β-arrestin2 recruitment (Tango); assay type: cell-based
[6] = biological target: T4, 5HT4 (Homo sapiens, UniProt Q13639); assay: β-arrestin2 recruitment (Tango); assay type: cell-based; details: Fig_S10n; for β-arrestin2 recruitment response in presence of serotonin (replicate values): +10μM serotonin; for β-arrestin2 recruitment response (dose-response source data, replicate values): drug alone
T4 construct: expressed in transfected cells; host or cells: HTLA cells expressing TEV-fused β-arrestin2
T4 sequence (Q13639 whole entry, the tested form may be a part): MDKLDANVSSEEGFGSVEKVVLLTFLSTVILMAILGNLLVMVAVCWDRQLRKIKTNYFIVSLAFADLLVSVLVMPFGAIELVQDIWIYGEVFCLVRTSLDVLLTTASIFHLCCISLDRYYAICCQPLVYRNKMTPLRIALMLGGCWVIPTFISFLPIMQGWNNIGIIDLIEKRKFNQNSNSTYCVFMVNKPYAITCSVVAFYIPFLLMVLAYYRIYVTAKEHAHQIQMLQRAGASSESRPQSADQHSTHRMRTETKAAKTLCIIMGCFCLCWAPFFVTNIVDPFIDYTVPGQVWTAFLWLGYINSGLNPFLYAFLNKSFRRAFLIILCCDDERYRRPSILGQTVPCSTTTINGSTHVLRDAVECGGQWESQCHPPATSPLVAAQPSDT

[7] = system: 320 non-olfactory GPCRs; assay type: cell-based; details: compound at 1 μM
[8] = system: serotonin receptor (subtype not given; reference agonist serotonin); assay: β-arrestin2 recruitment (Tango), agonist activity, source data Fig_S10m; assay type: cell-based, human; details: drug alone
[9] = biological target: T5, DRD2 F1103.28A (Homo sapiens, UniProt P14416, F110A); assay type: binding; design: expressed in transfected cells; host or cells: HEK293T (ATCC CRL-11268); details: DRD2 F1103.28A; read-out: Ki
T5 sequence (P14416 whole entry F110A): as the sequence (P14416 whole entry) above, with F110A counted along it

[10] = biological target: T5, DRD2 F1103.28A; assay: Gαi/o-mediated cAMP inhibition (GloSensor), mutant; assay type: cell-based; design: expressed in transfected cells; host or cells: HEK293T (ATCC CRL-11268)
[11] = biological target: T5, DRD2 F1103.28A; assay: β-arrestin2 recruitment (Tango), mutant; assay type: cell-based; design: expressed in transfected cells; host or cells: HEK293T (ATCC CRL-11268)

CCOc1cccc2cc([C@@H](C)NCC3(O)CCCCC3)oc12 [O4RE6]
EC50 ([1]; agonist, Gαi/o-mediated cAMP inhibition, read-out: EC50 ± SEM): 0.00045 ± 5e-05 µM
G protein agonist activity ([1]; cAMP inhibition): full agonist
Emax ([1]; HEK-293T, read-out: Emax relative to quinpirole response, cAMP inhibition): 94.5%
EC50 ([2]; agonist, read-out: EC50 ± SEM): 0.00712 ± 8e-05 µM
G protein agonist activity [2]: partial agonist
Emax ([2]; read-out: Emax relative to quinpirole response): 52.4%
EC50 [3]: > 10 µM
EC50 ([4]; DRD2 F1103.28L (b138 head prints DRD2 F1063.28L)): 0.00124 ± 0.00075 µM
Emax ([4]; read-out: Emax relative to quinpirole response, DRD2 F1103.28L): 56.4%
β-arrestin2 recruitment agonist activity ([5]; DRD3, Tango): partial agonist
EC50 ([5]; DRD3, Tango, read-out: EC50 ± SEM): 0.808 ± 0.022 µM
β-arrestin2 recruitment response at DRD3 (source data, replicate values) ([5]; Log[Drug] -5): 4.576 and 3.7 and 3.62 and 3.736 and 5.471 and 3.308 and 2.328
β-arrestin2 recruitment response at DRD3 (source data, replicate values) ([5]; Log[Drug] -5.52): 3.058 and 2.935 and 3.394 and 3.834 and 3.658 and 1.004 and 1.077
β-arrestin2 recruitment response at DRD3 (source data, replicate values) ([5]; Log[Drug] -6): 2.938 and 3.023 and 2.856 and 3.025 and 3.1562 and 0.3638 and 0.509
β-arrestin2 recruitment response at DRD3 (source data, replicate values) ([5]; Log[Drug] -6.52): 3.396 and 2.937 and 2.899 and 3.295 and 4.17 and 0.7903 and 0.1505
β-arrestin2 recruitment response at DRD3 (source data, replicate values) ([5]; Log[Drug] -7): 2.933 and 3.147 and 2.775 and 2.952 and 4.646 and 0.5125 and 2.883
β-arrestin2 recruitment response at DRD3 (source data, replicate values) ([5]; Log[Drug] -7.52): 3.0214 and 3.313 and 2.803 and 3.9395 and 2.8785 and -0.1416 and 0.9462
β-arrestin2 recruitment response at DRD3 (source data, replicate values) ([5]; Log[Drug] -8): 3.394 and 3.834 and 3.658 and 3.117 and 3.387 and 1.887 and -0.07348
β-arrestin2 recruitment response at DRD3 (source data, replicate values) ([5]; Log[Drug] -8.52): 2.856 and 3.025 and 3.1562 and 3.299 and 3.446 and 1.2903 and 3.595
β-arrestin2 recruitment response at DRD3 (source data, replicate values) ([5]; Log[Drug] -9): 2.899 and 3.295 and 4.17 and 2.956 and 3.124 and 0.2993 and 1.159
β-arrestin2 recruitment response at DRD3 (source data, replicate values) ([5]; Log[Drug] -9.52): 2.775 and 2.952 and 4.646 and 3.025 and 2.94 and 0.3512 and -0.2025
β-arrestin2 recruitment response at DRD3 (source data, replicate values) ([5]; Log[Drug] -10): 2.803 and 3.9395 and 2.8785 and 2.928 and 3.403 and 1.077 and 2.238
β-arrestin2 recruitment response at DRD3 (source data, replicate values) ([5]; Log[Drug] -10.52): 5.884 and 3.155 and 4.6156 and 3.056 and 2.943 and 1.1541 and 0.8548
β-arrestin2 recruitment response at DRD3 (source data, replicate values) ([5]; Log[Drug] -11): 3.18 and 2.961 and 3.126 and 2.927 and 2.942 and 0.5878 and 2.511
β-arrestin2 recruitment response at DRD3 (source data, replicate values) ([5]; Log[Drug] -11.52): 2.6928 and 2.862 and 2.962 and 3.132 and 3.725 and -0.276 and 0.7993
Emax ([5]; read-out: Emax relative to quinpirole response, DRD3, Tango): 21.4%
β-arrestin2 recruitment response in presence of serotonin (replicate values) ([6]; Log[Drug] -6.52): 61.872
β-arrestin2 recruitment response (dose-response source data, replicate values) ([6]; Log[Drug] -6.52): 1.914
β-arrestin2 recruitment response in presence of serotonin (replicate values) ([6]; Log[Drug] -7): 64.7524 and 57.0569 and 68.7411 and 71.876 and 66.1156 and 64.7823 and 62.9846 and 72.5854 and 58.9141
β-arrestin2 recruitment response (dose-response source data, replicate values) ([6]; Log[Drug] -7): 0.4762 and 0.5315 and 0.3036 and 1.47 and 0.6917 and 0.6083 and -0.2126 and 0.07923 and 0.2126
β-arrestin2 recruitment response in presence of serotonin (replicate values) ([6]; Log[Drug] -7.52): 67.3937 and 54.3976 and 65.3292 and 58.7354 and 62.4375 and 61.2125 and 60.3264 and 67.443 and 67.076
β-arrestin2 recruitment response (dose-response source data, replicate values) ([6]; Log[Drug] -7.52): 0.4824 and 0.6557 and 1.0009 and 1.276 and 0.8198 and 0.6438 and -0.1108 and 0.08408 and -0.1463
β-arrestin2 recruitment response in presence of serotonin (replicate values) ([6]; Log[Drug] -8): 65.8409 and 63.3895 and 63.0679 and 59.9271 and 55.4104 and 64.9198 and 50.9713 and 49.466 and 77.9372
β-arrestin2 recruitment response (dose-response source data, replicate values) ([6]; Log[Drug] -8): 0.2279 and 0.2043 and 0.8233 and 0.8469 and 0.6458 and 2.318 and -0.27 and -0.308 and 0.6993
β-arrestin2 recruitment response in presence of serotonin (replicate values) ([6]; Log[Drug] -8.52): 63.4237 and 62.7587 and 63.6242 and 63.1469 and 61.3792 and 61.5198 and 57.3708 and 61.2149 and 65.253
β-arrestin2 recruitment response (dose-response source data, replicate values) ([6]; Log[Drug] -8.52): 1.195 and 1.746 and 0.9636 and 0.6083 and 1.193 and 1.147 and -0.3056 and 0.2118 and 0.0477
β-arrestin2 recruitment response in presence of serotonin (replicate values) ([6]; Log[Drug] -9): 73.1291 and 64.8356 and 60.6203 and 52.4417 and 65.9365 and 64.5823 and 63.8148 and 65.7381 and 55.6869
β-arrestin2 recruitment response (dose-response source data, replicate values) ([6]; Log[Drug] -9): 0.9748 and 0.4464 and 1.275 and 1.439 and 1.359 and 0.525 and -0.3751 and 0.5028 and -0.1156
β-arrestin2 recruitment response in presence of serotonin (replicate values) ([6]; Log[Drug] -9.52): 69.2832 and 67.6123 and 68.9932 and 55.1 and 63.4344 and 64.601 and 58.9998 and 66.4964 and 65.7267
β-arrestin2 recruitment response (dose-response source data, replicate values) ([6]; Log[Drug] -9.52): 0.9748 and 1.052 and 0.4042 and 0.901 and 0.7365 and 0.6104 and 1.02 and 0.3484 and -0.01698
β-arrestin2 recruitment response in presence of serotonin (replicate values) ([6]; Log[Drug] -10): 76.2485 and 62.2675 and 64.5873 and 59.8927 and 56.6667 and 68.1219 and 68.0316 and 61.4033 and 67.9677
β-arrestin2 recruitment response (dose-response source data, replicate values) ([6]; Log[Drug] -10): 0.629 and 0.5812 and 0.457 and 0.6927 and 0.4885 and 0.9823 and -0.2005 and 5.06 and 0.3864
β-arrestin2 recruitment response in presence of serotonin (replicate values) ([6]; Log[Drug] -10.52): 75.7189 and 64.7332 and 70.6094 and 73.5573 and 66.3448 and 67.3771 and 66.768 and 70.3542 and 67.3953
β-arrestin2 recruitment response (dose-response source data, replicate values) ([6]; Log[Drug] -10.52): 0.4328 and 0.1577 and 0.7768 and 0.8562 and 0.5281 and 1.361 and 0.08327 and -0.03395 and 0.2724
β-arrestin2 recruitment response in presence of serotonin (replicate values) ([6]; Log[Drug] -11): 74.7968 and 75.6357 and 68.127 and 60.4448 and 57.1219 and 66.626 and 65.7178 and 87.5009 and 57.2593
β-arrestin2 recruitment response (dose-response source data, replicate values) ([6]; Log[Drug] -11): 0.5557 and 0.7004 and 0.8308 and 2.567 and 0.5635 and 1.27 and -0.1415 and -0.4034 and 0.4066
β-arrestin2 recruitment response in presence of serotonin (replicate values) ([6]; Log[Drug] -11.52): 97.2705 and 89.1683 and 77.1935 and 74.2448 and 65.2792 and 55.4573 and 62.6402 and 78.6163 and 88.7629
β-arrestin2 recruitment response (dose-response source data, replicate values) ([6]; Log[Drug] -11.52): 0.4266 and 1.996 and 0.1267 and 1.773 and 0.5229 and 1.651 and 0.05093 and 0.01859 and 0.1746
β-arrestin2 recruitment response in presence of serotonin (replicate values) ([6]; Log[Drug] -12): 118.392 and 99.4834 and 97.7219 and 77.2104 and 74.4021 and 77.9375 and 116.996 and 81.757 and 92.5544
β-arrestin2 recruitment response (dose-response source data, replicate values) ([6]; Log[Drug] -12): 0.9382 and 1.326 and 1.032 (2×) and 0.8271 and 0.8656 and -0.4301 and -0.07599 and 0.5061
agonism across 320 nonolfactory GPCRs [7]: agonist efficacy at DRD2 and DRD3
response, Fig_S10m, replicate values ([8]; Log[Drug] -10): 2.7529 and -0.4377 and -1.97 and -0.5261 and 1.876 and -0.04315 and 3.796 and 2.966 and 1.035
response, Fig_S10m, replicate values ([8]; Log[Drug] -10.52): 0.7688 and 0.004826 and -2.114 and 0.954 and 0.8686 and -0.8567 and -0.09082 and -0.6687 and 2.414
response, Fig_S10m, replicate values ([8]; Log[Drug] -11): 1.778 and -1.268 and 4.058 and 1.198 and 1.567 and 2.185 and -0.6818 and -1.429 and -2.744
response, Fig_S10m, replicate values ([8]; Log[Drug] -11.52): -1.448 and 1.084 and -0.9329 and 1.724 and -0.9384 and 3.221 and 2.656 and 0.1211 and -2.648
response, Fig_S10m, replicate values ([8]; Log[Drug] -12): 3.008 and 0.9208 and 2.0444 and 1.398 and -0.9127 and 1.032 and 3.604 and 5.24 and 4.003
Ki [9]: 0.49 µM
EC50 [10]: > 10 µM
EC50 [11]: > 10 µM
